Measured values: paper PMC7352922, “Norditerpenoids with Selective Anti-Cholinesterase Activity from the Roots of Perovskia atriplicifolia Benth” (International Journal of Molecular Sciences, 2020)
Values joined by “and” are separate entries in the source; they are usually repeats but may differ in a detail not shown here. Equal entries are not always repeated. Structures can show the parent of a compound that is named as a salt. Where two headings read alike, the source gives them in different places.

Experiments:
[1] = target: T1, horse serum butyrylcholinesterase (Equus caballus, UniProt P81908); experiment: biochemical; conditions: for inhibition at 10 µg/mL: read-out: % Inhibition ± S.D. at 10.0 µg·mL^−1 BChE; for IC50: read-out: BChE Inhibition IC50 (converted)
T1 construct: horse serum butyrylcholinesterase (EC 3.1.1.8, Sigma, St. Louis, MO, USA); purchased Sigma, St. Louis, MO, USA; host or cells: horse serum
T1 sequence (P81908 whole entry): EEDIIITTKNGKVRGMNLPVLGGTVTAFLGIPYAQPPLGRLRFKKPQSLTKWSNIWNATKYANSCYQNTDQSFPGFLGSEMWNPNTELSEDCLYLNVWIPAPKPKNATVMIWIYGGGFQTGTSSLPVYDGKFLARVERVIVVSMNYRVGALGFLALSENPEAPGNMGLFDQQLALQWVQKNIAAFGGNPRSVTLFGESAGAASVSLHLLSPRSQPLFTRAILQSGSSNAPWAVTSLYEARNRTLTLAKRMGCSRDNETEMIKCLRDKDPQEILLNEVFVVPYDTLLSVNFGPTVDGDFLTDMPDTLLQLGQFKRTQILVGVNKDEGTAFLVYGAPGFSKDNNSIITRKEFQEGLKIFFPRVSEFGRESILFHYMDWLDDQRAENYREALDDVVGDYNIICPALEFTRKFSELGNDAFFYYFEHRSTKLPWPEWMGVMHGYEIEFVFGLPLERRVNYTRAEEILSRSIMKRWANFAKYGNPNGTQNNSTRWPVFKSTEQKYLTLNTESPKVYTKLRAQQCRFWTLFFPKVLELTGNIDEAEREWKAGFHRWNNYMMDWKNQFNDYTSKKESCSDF
Description: (§1) A modified spectrophotometric method of Ellman et al. was used for the determination of inhibitory activity against AChE and BChE. Electric eel acetylcholinesterase (Type-VI-S, EC 3.1.1.7, Sigma, St. Louis, MO, USA) and horse serum butyrylcholinesterase (EC 3.1.1.8, Sigma, St. Louis, MO, USA) were used as the test enzymes and acetylthiocholine iodide and butyrylthiocholine chloride (Sigma, St. Louis, MO, USA) were employed as the respective substrates. The ChE activity was evaluated with the detection reagent 5,5′-dithio-bis(2-nitrobenzoic) acid (DTNB, Sigma, St. Louis, MO, USA). All the other reagents and conditions were the same as described in our previous publication. In brief, the following reaction mixture was added by a multichannel automatic pipette (Gilson Pipetman, Villiers Le Bel, France) in a 96-well microplate and incubated for 15 min at 25 °C: 140 µL of […] sodium phosphate buffer (pH 8.0), 20 µL of […] DTNB, 20 µL of sample solutions (0.1–10 µg/mL) and 20 µL of acetylcholinesterase/butyrylcholinesterase solution (0.2 µM). The reaction was then initiated with the addition of 10 µL of acetylthiocholine iodide or butyrylthiocholine chloride (2 mM). […] Galanthamine (Sigma, St. Louis, MO, USA)—an alkaloid isolated from snowdrop—was employed as the reference inhibitory drug.
(§2) The measurements and calculations were performed using SoftMax PRO 4.3.2.LS software (Molecular Devices, San Jose, CA, USA). […] The extent of the enzymatic reaction was calculated based on the following equation: E = (C − T)/C × 100, where E is the activity of the enzyme. E expresses the effect of the test sample or the positive control on acetylcholinesterase and butyrylcholinesterase enzyme activity expressed as the percentage of the […] in the presence of the test sample or positive control. C is the absorbance of the control solvent (blank) in the presence of an enzyme, and T is the absorbance of the tested sample (plant extract or positive control in the solvent) in the presence of an enzyme.
(§3) Statistical differences between the reference and the sample groups were evaluated by one-way ANOVA (Statistica 13PL, StatSoft, Cracow, Poland) with Dunnett’s multiple comparison post-hoc test for which p < 0.05 was considered to be significant (* p < 0.05; ** p < 0.01; *** p < 0.001, **** p < 0.0001).

[2] = target: T1, horse serum butyrylcholinesterase; experiment: biochemical; conditions: BChE; for assumed competitive inhibition, substrate concentration = 1 mM; read-out: Ki app
[3] = target: T2, Electric eel acetylcholinesterase (Electrophorus electricus, UniProt O42275); experiment: biochemical; conditions: for inhibition at 10 µg/mL: read-out: % Inhibition ± S.D. at 10.0 µg·mL^−1 AChE, at 10.0 µg·mL^−1; for IC50: read-out: AChE IC50
T2 construct: purchased Sigma, St. Louis, MO, USA Type-VI-S
T2 sequence (O42275 24-633): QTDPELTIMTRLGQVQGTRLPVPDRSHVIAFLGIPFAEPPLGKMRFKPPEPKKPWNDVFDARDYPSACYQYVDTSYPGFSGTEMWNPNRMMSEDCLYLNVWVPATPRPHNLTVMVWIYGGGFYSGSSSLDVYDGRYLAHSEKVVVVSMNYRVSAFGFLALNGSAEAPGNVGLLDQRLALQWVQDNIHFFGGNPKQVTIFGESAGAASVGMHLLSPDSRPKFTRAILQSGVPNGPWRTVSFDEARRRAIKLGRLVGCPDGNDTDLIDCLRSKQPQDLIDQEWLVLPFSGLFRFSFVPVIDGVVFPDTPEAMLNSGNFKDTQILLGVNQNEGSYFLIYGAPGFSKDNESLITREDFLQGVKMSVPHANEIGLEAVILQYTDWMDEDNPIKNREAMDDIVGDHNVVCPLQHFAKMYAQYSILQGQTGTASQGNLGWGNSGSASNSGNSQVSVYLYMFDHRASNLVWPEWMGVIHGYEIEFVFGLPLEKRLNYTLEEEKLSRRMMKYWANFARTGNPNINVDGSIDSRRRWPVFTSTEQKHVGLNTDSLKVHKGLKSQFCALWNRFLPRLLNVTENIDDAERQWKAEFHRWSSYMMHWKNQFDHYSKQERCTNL
Description: as §1, §2, §3

[4] = test system: several cancer cell lines; conditions: isolated from rhizomes of Salvia tebesana Bunge; cited from earlier work
cholinesterase = conditions: cited from earlier work

Compound	% Inhibition ± S.D. at 10.0 µg·mL^−1 BChE ([1]; at 10.0 µg·mL^−1) [%]	inhibition at 10 µg/mL ([1]; at 10.0 µg·mL^−1) [%]	IC50 [1]	Ki [2] [µM]	other results
CC(=O)O[C@@H]1CCC(C)(C)c2ccc3c(c21)C(=O)C(=O)C1=C3OC[C@@H]1C [Compound 1, (1R,15R)-1-acetoxycryptotanshinone]	95.9 ± 0.0	95.9	2.4 µM and 2.37 µM	1.34	–
Cc1cc2c(cc(O)c1=O)C1(CO)CCCC(C)(C)C1CC2 (centres unmarked) [Compound 4, isograndifoliol]	–	98.6	0.9 µM and 0.893 µM and 0.89 µM	0.47	inhibition at 10 µg/mL [3]: ≤ 50%; IC50 [3]: > 340 µM and 343 µM; BChE Inhibition IC50 [1]: below one micromole
COc1ccc2c3c1O[C@H]1C[C@@H](O)C=C[C@@]31CCN(C)C2 [Galanthamine hydrobromide, reference compound]	–	–	–	–	inhibition at 10 µg/mL [1]: 86.8 ± 2.9%
C[C@H]1COC2=C1C(=O)C(=O)c1cc3c(cc12)C(C)(C)CCC3=O [Compound 3, (R)-3,10,10-trimethyl-2,3,9,10-tetrahydroanthra[1,2-b]furan-4,5,7(8H)-trione]	87.3 ± 1.0	87.3	50.8 µM	30	inhibition at 10 µg/mL [3]: ≤ 50%; IC50 [3]: 330 µM
Aegyptinone A	–	–	–	–	cytotoxic activity against several cancer cell lines [4]: moderate
C[C@H]1COC2=C1C(=O)C(=O)c1c2ccc2c1CCCC2(C)C [cryptotanshinone]	–	–	–	–	cholinesterase inhibitory activity (cholinesterase): only moderate
CC(=O)O[C@@H]1CCC(C)(C)c2ccc3c(c21)C(=O)C(=O)c1c(C)coc1-3 [Compound 2, (1R)-1-acetoxytanshinone IIA]	85.3 ± 4.3	85.3	7.9 µM and 7.86 µM	4.59	–
